# Results: paper PMC6825211 (Nature Communications, 2019)
# “And” between values parts separate entries of the source, which are not always exact repeats. Equal entries are not always repeated.
# Key:
# [1] = MALDI imaging mass spectrometry of pancreas sections; type: in vivo, mouse
# Experimental: MALDI imaging mass spectrometry (MALDI imaging MS) was performed on pancreas, liver, colon, stomach, kidney, heart, and brain tissue sections from WT C57BL/6J and db/db mice in triplicates. […] For MALDI imaging MS, 10-µm cryo sections were cut with a cryo-microtome (CM1860, Leica Biosystems, Nussloch, Germany) and mounted on indium–tin-coated conductive glass slides (Bruker Daltonics, Bremen, Germany). The matrix (HCCA in 50% ACN, 0.5% TFA) was applied with the ImagePrep Device (Bruker Daltonics), and MALDI spectra were recorded by using a Bruker autofleX speed mass spectrometer in positive reflector mode with a mass range of 400–1400 m/z. A large-size laser diameter was used with a lateral resolution of 100 µm, and 500 laser shots per pixel were accumulated with the random walk option set to 100 shots per position. […] Standards were spotted on mice liver cryo-sections and the spectral intensity was plotted.
# FLT-3 = FLT-3 (Homo sapiens, UniProt P36888); test: Nanosyn kinase profiling, mobility shift assay; conditions: read-out: % inhibition by neratinib
# [2] = tested on: isolated islets from MST1-KO mice; test: β-cell apoptosis (TUNEL/insulin) under diabetogenic conditions, MST1-KO islets
# LCK = LCK (Homo sapiens, UniProt P06239); test: biochemical; conditions: read-out: % inhibition by neratinib
# PAK2 = PAK2 (Homo sapiens, UniProt Q13177); test: biochemical; conditions: read-out: % inhibition by neratinib
# MST1–LATS2 signaling = test: Western blot of YAP-S127 phosphorylation (MST1/LATS2 overexpression); conditions: 10 μM, last 24 h
# TYK2 = TYK2 (Homo sapiens, UniProt P29597); test: Nanosyn kinase profiling, mobility shift assay; conditions: read-out: % inhibition by neratinib
# [3] = tested on: panel of 50 serine, threonine, and tyrosine kinases; test: Nanosyn panel of 50 biochemical kinase assays; conditions: 10 µM, of 50 kinases
# CSK = CSK (Homo sapiens, UniProt P41240); test: Nanosyn kinase profiling, mobility shift assay; conditions: read-out: % inhibition by neratinib
# [4] = tested on: obese diabetic Lepr db/db mice; test: db/db model: β-cell apoptosis (TUNEL); type: in vivo, mouse; conditions: for TUNEL%/ mouse: dbdb mice
# Source text: (§1) Data are representative of six mice per group (n = 6 for (a–f)). g–j Mice were killed at day 31. g β-cell mass (given as percentage of the whole pancreatic section from ten sections spanning the width of the pancreas; n = 5 mice/group) and quantitative analyses from triple stainings for (h) TUNEL, (i) Ki67, (j) pHH3, and (k) nuclear PDX1 expression, insulin, and DAPI expressed as percentage of TUNEL-, Ki67-, pHH3-, or nuclear PDX1-positive β-cells ± SEM. An average number of 13667 (h), 5937 (i), 7108 (j), or 4330 (k) β-cells were counted from n = 3–5 (h, i, k) or n = 5–6 (j) mice/group.
# (§2) Mouse pancreases were dissected and fixed in 4% formaldehyde at 4 °C for 12 h before embedding in paraffin[62]. Two-four-micrometer sections were deparaffinized, rehydrated, and incubated overnight at 4 °C with anti-PDX-1 (Abcam; #47267), anti-Glut2 (Chemicon; #07-1402), anti-Ki67 (Dako; #M7249), anti-phospho-Histone H3 (Ser10; Merck #06-570), and anti-NKX6.1 (DSHB, University of Iowa #F55A12[66]) in combination with TSA (Invitrogen #T30955), or for 2 h at room temperature with anti-insulin (Dako; A0546) antibodies (all at a dilution of 1:100, except anti-PDX-1, which was diluted 1:400) followed by fluorescein isothiocyanate (FITC)- or Cy3-conjugated secondary antibodies (Jackson ImmunoResearch Laboratories, West Grove, PA). Slides were mounted with Vectashield with 4′6-diamidino-2-phenylindole (DAPI) (Vector Labs). β-cell apoptosis was analyzed by the terminal deoxynucleotidyl transferase-mediated dUTP nick-end labeling (TUNEL) technique according to the manufacturer’s instructions (In Situ Cell Death Detection Kit, TMR red; Roche) and double stained for insulin. Fluorescence was analyzed by using a Nikon MEA53200 (Nikon GmbH, Dusseldorf, Germany) microscope, and images were acquired by using NIS-Elements software (Nikon).
# JAK2 = JAK2 (Homo sapiens, UniProt O60674); test: Nanosyn kinase profiling, mobility shift assay; conditions: read-out: % inhibition by neratinib
# [5] = tested on: obese diabetic Lepr db/db mice; test: db/db model: β-cell mass; type: in vivo, mouse; conditions: for BCM: dbdb mice
# Source text: as §1
# For morphometric data, ten sections (spanning the width of the pancreas) per mouse were analyzed. Pancreatic tissue area and insulin-positive area were determined by computer-assisted measurements by using a Nikon MEA53200 (Nikon GmbH, Dusseldorf, Germany) microscope, and images were acquired by using NIS-Elements software (Nikon). β-cell mass was obtained by multiplying the β-cell fraction by the weight of the pancreas.
# [6] = tested on: obese diabetic Lepr db/db mice; test: db/db model: nuclear PDX1-positive β-cells; type: in vivo, mouse; conditions: for PDX1 %/mouse: dbdb mice
# Source text: as §1, §2
# db/db model: body weight = conditions: 5 mg/kg i.p. daily, 31 days
# EPH-A2 = EPH-A2 (Homo sapiens, UniProt P29317); test: Nanosyn kinase profiling, mobility shift assay; conditions: read-out: % inhibition by neratinib
# [7] = tested on: isolated islets from db/db mice; test: Ex vivo β-cell apoptosis (TUNEL) in isolated db/db islets; type: cell-based, mouse; conditions: for TUNEL%: dbdb islets with Nera
# ITK = ITK (Homo sapiens, UniProt Q08881); test: Nanosyn kinase profiling, mobility shift assay; conditions: read-out: % inhibition by neratinib
# Raw264.7 cells = test: RT-PCR of LPS-induced TNFα, IL-1β, IL-6 expression; conditions: 100 ng/mL LPS 4 h
# Source text: One microgram of cDNA of each treatment sample was synthesized by using SuperScript III First-Strand Synthesis (Invitrogen). Taqman mouse primers were purchased from ThermoFisher: TNFα (Catalog No. Mm00443258_m1), IL-6 (Catalog No. Mm00446190_m1), IL-1β (Catalog No. Mm00434228_m1), and GAPDH as endogenous housekeeping control (Catalog No. Mm99999915_g1). The qPCR reaction was set up for TNFα, IL-6, IL-1β, and GAPDH individually, with technical triplicates for each gene per treatment sample and performed by the Applied Biosystems ViiA 7 real-time PCR system. The ∆∆CT method was used to analyze the relative changes in gene expression.
# MAPK1 = MAPK1 (Homo sapiens, UniProt P28482); test: Nanosyn kinase profiling, mobility shift assay; conditions: read-out: % inhibition by neratinib
# PYK2 = PYK2 (Homo sapiens, UniProt Q14289); test: Nanosyn kinase profiling, mobility shift assay; conditions: read-out: % inhibition by neratinib
# TYK2, sequence (P29597 whole entry): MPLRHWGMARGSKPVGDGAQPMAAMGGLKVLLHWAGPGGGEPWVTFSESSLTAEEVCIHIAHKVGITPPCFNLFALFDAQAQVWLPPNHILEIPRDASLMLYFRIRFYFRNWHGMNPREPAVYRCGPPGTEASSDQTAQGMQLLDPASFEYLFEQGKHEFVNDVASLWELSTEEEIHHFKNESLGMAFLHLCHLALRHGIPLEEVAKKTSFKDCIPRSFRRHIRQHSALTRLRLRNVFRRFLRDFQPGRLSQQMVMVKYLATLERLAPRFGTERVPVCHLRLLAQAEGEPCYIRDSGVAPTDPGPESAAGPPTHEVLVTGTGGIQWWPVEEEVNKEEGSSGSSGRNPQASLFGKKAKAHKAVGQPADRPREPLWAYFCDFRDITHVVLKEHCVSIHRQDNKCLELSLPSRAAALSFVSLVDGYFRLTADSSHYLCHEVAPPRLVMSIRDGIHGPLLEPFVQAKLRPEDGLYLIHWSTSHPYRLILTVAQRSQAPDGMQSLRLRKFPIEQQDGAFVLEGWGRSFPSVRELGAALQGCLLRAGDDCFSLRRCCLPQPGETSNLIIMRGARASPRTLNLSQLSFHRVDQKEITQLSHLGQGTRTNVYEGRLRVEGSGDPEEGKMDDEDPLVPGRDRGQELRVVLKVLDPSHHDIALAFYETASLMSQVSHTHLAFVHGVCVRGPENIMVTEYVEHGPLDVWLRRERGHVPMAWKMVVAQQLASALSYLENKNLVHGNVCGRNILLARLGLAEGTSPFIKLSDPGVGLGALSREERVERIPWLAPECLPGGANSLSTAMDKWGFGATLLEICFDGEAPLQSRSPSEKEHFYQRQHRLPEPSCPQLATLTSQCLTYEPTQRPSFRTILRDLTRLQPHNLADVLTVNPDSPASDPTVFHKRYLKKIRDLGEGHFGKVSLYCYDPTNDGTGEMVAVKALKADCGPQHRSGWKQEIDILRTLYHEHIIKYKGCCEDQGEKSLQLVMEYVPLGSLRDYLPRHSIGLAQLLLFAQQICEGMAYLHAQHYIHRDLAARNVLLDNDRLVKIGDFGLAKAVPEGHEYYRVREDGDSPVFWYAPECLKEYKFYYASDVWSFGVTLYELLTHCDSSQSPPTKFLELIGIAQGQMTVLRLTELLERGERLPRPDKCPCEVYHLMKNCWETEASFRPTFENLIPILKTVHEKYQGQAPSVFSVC
# JAK2, sequence (O60674 whole entry): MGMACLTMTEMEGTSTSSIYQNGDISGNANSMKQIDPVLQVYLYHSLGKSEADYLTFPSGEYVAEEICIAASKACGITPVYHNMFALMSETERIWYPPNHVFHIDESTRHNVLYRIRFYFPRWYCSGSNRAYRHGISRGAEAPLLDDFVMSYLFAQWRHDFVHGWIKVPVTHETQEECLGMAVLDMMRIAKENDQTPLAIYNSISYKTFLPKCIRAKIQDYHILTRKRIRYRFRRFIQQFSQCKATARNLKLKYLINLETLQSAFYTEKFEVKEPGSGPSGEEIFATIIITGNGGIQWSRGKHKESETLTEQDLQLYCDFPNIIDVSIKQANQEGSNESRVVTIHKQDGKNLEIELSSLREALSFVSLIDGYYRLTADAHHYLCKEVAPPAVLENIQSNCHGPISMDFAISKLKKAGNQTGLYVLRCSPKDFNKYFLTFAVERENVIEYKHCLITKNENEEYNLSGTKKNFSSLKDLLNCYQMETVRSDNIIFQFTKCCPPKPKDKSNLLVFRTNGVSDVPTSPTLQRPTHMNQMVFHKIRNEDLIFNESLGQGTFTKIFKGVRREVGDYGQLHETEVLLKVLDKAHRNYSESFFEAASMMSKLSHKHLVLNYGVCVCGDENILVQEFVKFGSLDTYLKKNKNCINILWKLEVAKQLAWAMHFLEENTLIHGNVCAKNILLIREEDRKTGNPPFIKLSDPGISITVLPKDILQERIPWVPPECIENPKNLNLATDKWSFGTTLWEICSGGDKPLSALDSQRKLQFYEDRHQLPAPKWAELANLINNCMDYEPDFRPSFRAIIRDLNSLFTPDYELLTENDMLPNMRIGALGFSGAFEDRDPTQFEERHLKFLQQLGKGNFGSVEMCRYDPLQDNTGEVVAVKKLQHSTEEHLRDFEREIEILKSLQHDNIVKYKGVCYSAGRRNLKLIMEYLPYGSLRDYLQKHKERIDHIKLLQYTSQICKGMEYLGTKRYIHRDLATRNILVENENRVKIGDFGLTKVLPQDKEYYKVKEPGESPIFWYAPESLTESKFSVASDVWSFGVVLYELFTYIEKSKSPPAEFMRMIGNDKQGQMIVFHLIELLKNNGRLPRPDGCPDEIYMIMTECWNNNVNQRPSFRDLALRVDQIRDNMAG
# LCK, sequence (P06239 whole entry, species assumed): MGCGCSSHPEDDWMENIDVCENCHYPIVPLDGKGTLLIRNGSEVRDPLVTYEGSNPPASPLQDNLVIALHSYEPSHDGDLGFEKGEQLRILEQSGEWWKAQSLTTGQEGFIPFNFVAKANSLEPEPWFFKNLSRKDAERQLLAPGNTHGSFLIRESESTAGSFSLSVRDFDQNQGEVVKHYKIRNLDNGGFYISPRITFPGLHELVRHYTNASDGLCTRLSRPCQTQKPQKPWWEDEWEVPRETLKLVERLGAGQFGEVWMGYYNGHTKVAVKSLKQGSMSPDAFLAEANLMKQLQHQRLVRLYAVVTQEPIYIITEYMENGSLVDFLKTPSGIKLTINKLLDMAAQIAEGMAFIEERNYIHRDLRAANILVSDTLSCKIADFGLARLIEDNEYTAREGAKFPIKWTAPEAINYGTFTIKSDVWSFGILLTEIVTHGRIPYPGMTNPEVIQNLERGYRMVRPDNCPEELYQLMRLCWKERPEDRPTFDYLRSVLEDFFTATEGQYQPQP
# ITK, sequence (Q08881 whole entry): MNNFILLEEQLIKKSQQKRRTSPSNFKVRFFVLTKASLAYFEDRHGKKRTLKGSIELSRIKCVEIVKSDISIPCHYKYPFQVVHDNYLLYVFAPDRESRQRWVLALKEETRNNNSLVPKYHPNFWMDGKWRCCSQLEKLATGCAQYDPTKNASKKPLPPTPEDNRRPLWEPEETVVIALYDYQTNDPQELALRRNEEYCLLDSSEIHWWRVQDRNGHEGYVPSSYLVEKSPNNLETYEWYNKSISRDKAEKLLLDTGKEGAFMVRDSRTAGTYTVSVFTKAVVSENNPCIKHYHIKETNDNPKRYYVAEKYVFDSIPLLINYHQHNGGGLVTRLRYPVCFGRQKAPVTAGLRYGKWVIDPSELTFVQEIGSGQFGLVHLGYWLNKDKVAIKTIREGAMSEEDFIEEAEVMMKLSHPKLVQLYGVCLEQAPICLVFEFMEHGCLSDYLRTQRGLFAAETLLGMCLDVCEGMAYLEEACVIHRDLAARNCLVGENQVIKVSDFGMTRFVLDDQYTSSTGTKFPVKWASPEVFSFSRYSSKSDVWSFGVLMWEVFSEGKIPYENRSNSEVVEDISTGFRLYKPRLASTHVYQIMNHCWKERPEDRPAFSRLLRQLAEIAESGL
# EPH-A2, sequence (P29317 24-976): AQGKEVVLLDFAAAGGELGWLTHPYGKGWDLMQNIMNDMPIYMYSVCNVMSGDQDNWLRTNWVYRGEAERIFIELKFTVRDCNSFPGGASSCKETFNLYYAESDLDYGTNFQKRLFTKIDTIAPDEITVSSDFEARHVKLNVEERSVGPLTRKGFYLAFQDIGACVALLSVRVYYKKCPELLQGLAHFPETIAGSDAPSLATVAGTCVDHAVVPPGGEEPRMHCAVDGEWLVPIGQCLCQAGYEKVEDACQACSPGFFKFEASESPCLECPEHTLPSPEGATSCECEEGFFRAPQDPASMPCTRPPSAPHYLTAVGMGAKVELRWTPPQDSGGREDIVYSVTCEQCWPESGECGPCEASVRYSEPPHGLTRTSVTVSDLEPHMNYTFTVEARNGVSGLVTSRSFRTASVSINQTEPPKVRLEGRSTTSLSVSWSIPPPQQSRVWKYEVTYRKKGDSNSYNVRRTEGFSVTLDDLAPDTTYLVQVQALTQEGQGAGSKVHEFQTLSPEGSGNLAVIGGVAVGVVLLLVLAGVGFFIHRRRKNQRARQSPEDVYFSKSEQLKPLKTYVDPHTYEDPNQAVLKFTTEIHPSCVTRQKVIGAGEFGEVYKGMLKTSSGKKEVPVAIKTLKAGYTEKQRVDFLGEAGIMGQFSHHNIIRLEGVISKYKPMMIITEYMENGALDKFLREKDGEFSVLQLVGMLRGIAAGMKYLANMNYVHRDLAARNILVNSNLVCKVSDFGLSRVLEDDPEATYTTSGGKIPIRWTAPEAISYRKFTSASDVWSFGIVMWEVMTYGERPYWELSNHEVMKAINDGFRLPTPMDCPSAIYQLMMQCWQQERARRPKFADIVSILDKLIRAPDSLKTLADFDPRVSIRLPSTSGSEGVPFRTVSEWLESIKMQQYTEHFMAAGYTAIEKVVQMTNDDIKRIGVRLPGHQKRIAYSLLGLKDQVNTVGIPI
# MAPK1, sequence (P28482 whole entry): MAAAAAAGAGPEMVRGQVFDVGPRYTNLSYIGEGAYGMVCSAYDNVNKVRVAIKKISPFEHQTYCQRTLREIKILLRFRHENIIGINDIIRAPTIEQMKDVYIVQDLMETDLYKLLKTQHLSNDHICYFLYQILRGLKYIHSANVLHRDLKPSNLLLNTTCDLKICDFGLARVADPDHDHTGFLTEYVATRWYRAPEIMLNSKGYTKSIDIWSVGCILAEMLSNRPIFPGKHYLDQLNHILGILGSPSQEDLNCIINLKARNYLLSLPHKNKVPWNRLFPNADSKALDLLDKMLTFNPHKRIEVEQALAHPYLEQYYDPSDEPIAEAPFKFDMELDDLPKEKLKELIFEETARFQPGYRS
structure (smiles),measurement,setting,value
CCOc1cc2ncc(C#N)c(Nc3ccc(OCc4ccccn4)c(Cl)c3)c2cc1NC(=O)/C=C/CN(C)C [neratinib],neratinib in pancreatic tissue,"[1]; WT mice, 4 h after i.p. injection",clearly detected
same,neratinib signal in pancreas tissue sections,"[1]; db/db mice, 4-week daily i.p. injection",specific signal was obtained
same,inhibition at 10 µM,FLT-3,47%
same,cytokine- and glucolipotoxicity-induced apoptosis in MST1-KO islets,"[2]; 10 μM, 72 h",no significant effect
same,mean TUNEL/isolation/%,[2]; MST1-KO HG/Pal Nera 10 μM 72 h,407.974%
same,mean TUNEL/isolation/%,[2]; MST1-KO ILIF Nera 10 μM 72 h,384.79%
same,inhibition at 10 µM,LCK,96%
same,inhibition at 10 µM,PAK2,101%
same,MST1/LATS2-induced YAP-S127 phosphorylation,MST1–LATS2 signaling,strongly inhibited
same,inhibition at 10 µM,TYK2,15%
same,number of kinases with >50% of inhibition,[3],16
same,inhibition at 10 µM,CSK,95%
same,β-cell apoptosis,"[4]; db/db, day 31",significantly reduced β-cell apoptosis
same,TUNEL%/ mouse,[4]; Mean,0.5462%
same,TUNEL%/ mouse,[4]; individual mice,0.6553% and 0.4112% and 0.66% and 0.4585%
same,inhibition at 10 µM,JAK2,18%
same,β-cell mass,"[5]; db/db, day 31",increased β-cell mass
same,BCM,[5]; Mean,4.571
same,BCM,[5]; individual mice,1.526 and 8.3226 and 3.26 and 4.639 and 5.1069
same,nuclear PDX1,"[6]; db/db, day 31",enhanced
same,PDX1 %/mouse,[6]; Mean,57.3127%
same,PDX1 %/mouse,[6]; individual mice,48.8372% and 71.3415% and 51.7595%
same,body weight,db/db model: body weight,no influence on body weight
same,inhibition at 10 µM,EPH-A2,51%
same,β-cell survival in db/db islets ex vivo,"[7]; 10 μM, 24 h",fully restored β-cell survival
same,TUNEL%,[7]; MEAN,1.158%
same,TUNEL%,[7]; individual replicates,1.875% and 1.213% and 0.7124% and 0.9025% and 0.3448% and 1.9025%
same,inhibition at 10 µM,ITK,88%
same,"LPS-induced expression of TNFα, IL-1β, and IL-6",Raw264.7 cells,largely inhibited
same,inhibition at 10 µM,MAPK1,12%
same,inhibition at 10 µM,PYK2,41%
